Read-outs that look alike come from different tables or passages of the source.
Target: T1, THP1 dual cell (Homo sapiens, UniProt Q8N697)
T1 construct: R848 (TLR7/8)-stimulated ISRE reporter
Assay: THP1 DUAL/ISRE cell reporter assay (R848 stimulated)
Type: cell-based
Method: CAL-1, THP1 or human primary cells were incubated with dTASL1 and other identified compounds (or the corresponding volume of DMSO vehicle) for 24 h or 48 h at the indicated concentration and subsequently stimulated with R848 (5 μg/ml) for the indicated time. Supernatant or cells were recovered for ELISA, SDS-PAGE or microscopy-based analysis.
THP1 DUAL cells (1×10^5 cells per 96 well) were incubated with compounds for 24 h or 48 h, and subsequently stimulated for 20 h as indicated. Cell culture supernatant were collected, cleared of residual cells by centrifugation and analyzed for NF-κB and ISRE reporter activity according to the manufacturer's instructions. For experiments in 384-well format, compounds were pre-plated at defined concentrations and THP1 dual cells were added at 800 k/well concentration in […]. After incubation for 24 h or 48 h cells were stimulated with […] of a 25 μg/ml stock of R848 or 0.5 μg/ml Pam3CKS4 5× stocks as indicated for 20 h and detected by directly adding Quanti-Luc Plus (Invivogen) solution to the plates, according to the manufacturer's instructions and without adding stabilizer solution. Quanti-Blue detection was carried out according to the manifacturers instructions, with QB reagent and buffer (Invivogen) dissolved in 30 ml water, instead of the 100 ml used for standard detection.
Based on potency and kinetics, the compound C5 was selected for further characterization (FIG. 2E). C5 is an elongated molecule comprised of an aromatic 2-(4-ethoxyphenyl)-quinoline moiety followed by an amide bond and an aliphatic 2-methyl-1-propylpiperidine (FIG. 2F). To validate the scaffold and explore the chemical space at the aliphatic end of the compound, five analogues and an independently synthesized batch of C5 were obtained. […] Therefore the C5 compound was selected, which was named dTASL1 as its activity leads to TASL degradation, to assess effects on TLR7/8-induced signaling and responses.
The following compounds were assayed for their activity in the degradation assay (THP1 DUAL/ISRE cell reporter assay), as described herein: […]

[1] = 24 h treatment before R848 stimulation, read-out: IC50 24 h
[2] = 48 h treatment before R848 stimulation, read-out: IC50 48 h

T1 sequence (Q8N697 whole entry): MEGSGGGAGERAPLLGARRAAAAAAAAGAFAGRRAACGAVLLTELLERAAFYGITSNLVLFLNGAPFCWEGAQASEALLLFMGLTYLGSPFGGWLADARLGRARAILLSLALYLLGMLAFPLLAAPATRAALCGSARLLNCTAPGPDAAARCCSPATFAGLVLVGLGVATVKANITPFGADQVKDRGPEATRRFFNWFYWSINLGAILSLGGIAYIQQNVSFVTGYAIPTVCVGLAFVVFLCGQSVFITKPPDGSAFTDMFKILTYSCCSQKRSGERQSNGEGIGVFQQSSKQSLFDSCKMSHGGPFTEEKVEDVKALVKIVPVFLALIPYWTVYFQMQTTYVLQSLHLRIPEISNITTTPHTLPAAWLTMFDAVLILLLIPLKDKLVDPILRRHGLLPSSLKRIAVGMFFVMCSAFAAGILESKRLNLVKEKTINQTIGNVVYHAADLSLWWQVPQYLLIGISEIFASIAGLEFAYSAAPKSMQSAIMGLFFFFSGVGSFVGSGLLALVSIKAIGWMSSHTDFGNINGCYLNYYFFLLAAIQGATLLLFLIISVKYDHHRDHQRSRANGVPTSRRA

Row | IC50 [1] [µM] | IC50 [2] [µM] | SMILES
1 | 4.16 | 2.39 | CCOc1ccc(-c2cc(C(=O)NCCCN3CCCCC3)c3ccccc3n2)cc1 [dTASL1-a4]
2 | 3.49 | 2.96 | CCOc1ccc(-c2cc(C(=O)NCCCN3CCCCCC3)c3ccccc3n2)cc1 [dTASL1-a2]

Reference: patent US20260364088A1, “TASL MIMICKING MOLECULES AND APPLICATIONS THEREOF” (CEMM - FORSCHUNGSZENTRUM FÜR MOLEKULARE MEDIZIN GMBH, priority 2022, published 2026)
